Results on 39 molecules are retold here after ChEMBL document CHEMBL1154763, “Antitrypanosomal activity of 1,2-dihydroquinolin-6-ols and their ester derivatives” (J Med Chem, 2010).

The subject of series [1] is Trypanosoma brucei rhodesiense. Put plainly: Antitrypanosomal activity against bloodstream Trypanosoma brucei rhodesiense STIB 900 after 70 hrs by alamar blue assay. The format is functional, organism-based. The note with it: STIB 900, 70 h.
A further series has as its system L6. Put plainly: Cytotoxicity against rat L6 cells after 70 hrs by alamar blue assay. The format is cell-based. The settings on record: L6, 70 h. (In general: Alamar Blue is a resazurin reagent that responds to reducing activity.)
Series [2] in a line: Selectivity index, ratio of IC50 for rat L6 cells to IC50 for bloodstream Trypanosoma brucei rhodesiense STIB 900. The series is classed as toxicity, cell-based. The settings on record: read-out: Ratio IC50.

Regarding `COc1cc(CN2c3ccc(OC(C)=O)cc3C(C)=CC2(C)C)cc(OC)c1`, the IC50 – broadly, the concentration that inhibits the measured activity by half – in series [1] came out at 0.1 µM; in the series with L6 (read-out: IC50), 25 µM. Also, the selectivity ratio in series [2] stood at 240.
Take `COc1cc(CN2c3ccc(O)cc3C(C)=CC2(C)C)cc(OC)c1`: the values for the IC50 (in series [1]; in the series with L6 (read-out: IC50)) were 0.14 µM and 11 µM, respectively. Also, in series [2], the selectivity ratio was found to be 83.
`CC(=O)Oc1ccc2c(c1)C(C)=CC(C)(C)N2Cc1ccc(C(C)(C)C)cc1`: the IC50 in series [1] worked out at 0.67 µM; with L6 (read-out: IC50), 9 µM. Also, the selectivity ratio in series [2] is 13.
On to `CC1=CC(C)(C)Nc2ccc(OCc3cccc(C(F)(F)F)c3)cc21`, for which the IC50 in series [1] was determined as 8.8 µM; in the series on L6 (read-out: IC50), 45 µM. Also, the selectivity ratio in series [2] came out at 5.
As for `COc1cc([C@@H]2c3cc4c(cc3[C@H](O)[C@H]3COC(=O)[C@H]23)OCO4)cc(OC)c1OC` [PODOFILOX], the IC50 with L6 turned out to be 0.012 µM.
As to `CC(=O)Oc1ccc2c(c1)C(C)=CC(C)(C)N2Cc1ccc(Cl)c(Cl)c1`, the IC50 was 0.053 µM in series [1] and 28 µM in the series on L6 (read-out: IC50). In addition, in series [2], the selectivity ratio turned out to be 530.
With `COc1cc(CN2c3ccc(OC(C)=O)cc3C=CC2(C)C)cc(OC)c1`, the IC50 in series [1] turned out to be 0.2 µM; in the series with L6 (read-out: IC50) it was 10 µM. Besides, the selectivity ratio in series [2] was found to be 50.
Consider `COc1cc(COc2ccc3c(c2)C(C)=CC(C)(C)N3)cc(OC)c1`, for which the IC50 in series [1] was 13 µM; in the series on L6 (read-out: IC50) it was 68 µM. For the same molecule, the selectivity ratio in series [2] worked out at 5.
Regarding `COc1ccc(CN2c3ccc(OC(C)=O)cc3C(C)=CC2(C)C)cc1`, the IC50 amounted to 0.048 µM in series [1] and 15 µM in the series with L6 (read-out: IC50). In series [2], the selectivity ratio was 310.
The matching figures for `CC1=CC(C)(C)N(Cc2ccccc2)c2ccc(OC(=O)C(C)(C)C)cc21`: 0.028 µM, 170 µM and 6000.
Regarding `COc1cccc(CN2c3ccc(OC(C)=O)cc3C(C)=CC2(C)C)c1`, the IC50 was found to be 0.32 µM in series [1] and 29 µM with L6 (read-out: IC50). Moreover, the selectivity ratio in series [2] came out at 91.
Take `CC1=CC(C)(C)Nc2ccc(OC(=O)c3cccc(C(=O)Oc4ccc5c(c4)C(C)=CC(C)(C)N5)c3)cc21`: the results for the IC50 (in series [1]; with L6 (read-out: IC50)) were < 0.008 µM and 63 µM, respectively. The selectivity ratio in series [2] is > 7800.
As for `CC(=O)Oc1ccc2c(c1)C(C)=CC(C)(C)N2Cc1cccc(Cl)c1`, the IC50 in series [1] is 0.039 µM; with L6 (read-out: IC50), 29 µM. Moreover, the selectivity ratio in series [2] is 740.
As to `CC1=CC(C)(C)Nc2ccc(OCc3ccc(C(F)(F)F)cc3)cc21`, the values for the IC50 (in series [1]; with L6 (read-out: IC50)) were 4.5 µM and 48 µM, respectively. The selectivity ratio in series [2] turned out to be 11.
In the case of `CC(=O)Oc1ccc2c(c1)C(C)=CC(C)(C)N2Cc1ccc(C(F)(F)F)cc1`, the IC50 was 0.36 µM in series [1] and 14 µM with L6 (read-out: IC50). Also, in series [2], the selectivity ratio came out at 39.
For the molecule `COc1cc(OC)cc(C(=O)Oc2ccc3ncccc3c2)c1`, the IC50 stood at 89 µM in series [1] and 200 µM with L6 (read-out: IC50). For the same molecule, the selectivity ratio in series [2] was 2.
In the case of `CC(=O)Oc1ccc2c(c1)C(C)=CC(C)(C)N2C`, the IC50 in series [1] came out at 1.4 µM; in the series on L6 (read-out: IC50), 41 µM. The selectivity ratio in series [2] turned out to be 29.
With `Nc1nc(N)nc(Nc2ccc([As]3SCC(CO)S3)cc2)n1` (stereo not given) [MELARSOPROL], the values for the IC50 (in series [1]; in the series with L6 (read-out: IC50)) were 0.008 µM and 7.9 µM, respectively. The selectivity ratio in series [2] amounted to 1000.
In the same order, the values of `COc1cccc(COc2ccc3c(c2)C(C)=CC(C)(C)N3Cc2cccc(OC)c2)c1` are 63 µM, > 210 µM and > 3.
Regarding `COc1cccc(COc2ccc3c(c2)C(C)=CC(C)(C)N3)c1`, the IC50 turned out to be 11 µM in series [1] and 61 µM in the series with L6 (read-out: IC50). Moreover, the selectivity ratio in series [2] was 5.
In the case of `CC(=O)Oc1ccc2c(c1)C(C)=CC(C)(C)N2Cc1ccc(Cl)cc1`, the IC50 in series [1] was found to be 0.18 µM; with L6 (read-out: IC50), 22 µM. The selectivity ratio in series [2] turned out to be 120.
On to `CC1=CC(C)(C)N(Cc2ccccn2)c2ccc(O)cc21`, for which the IC50 turned out to be 1.1 µM in series [1] and 18 µM in the series with L6 (read-out: IC50). In series [2], the selectivity ratio turned out to be 17.
Regarding `CC1=CC(C)(C)N(Cc2ccc(C)cc2)c2ccc(O)cc21`, the figures for the IC50 (in series [1]; in the series with L6 (read-out: IC50)) were 0.058 µM and 8.1 µM, respectively. The selectivity ratio in series [2] came to 140.
Regarding `CC1=CC(C)(C)N(Cc2ccncc2)c2ccc(O)cc21`, the IC50 in series [1] was determined as 0.34 µM; in the series with L6 (read-out: IC50) it was 13 µM. For the same molecule, in series [2], the selectivity ratio turned out to be 39.
With `CCCCCCCC(=O)Oc1ccc2c(c1)C(C)=CC(C)(C)N2Cc1ccccc1`, the IC50 in series [1] turned out to be 0.017 µM; with L6 (read-out: IC50), 220 µM. Besides, the selectivity ratio in series [2] is 13000.
`CC1=CC(C)(C)N(Cc2ccc(C(F)(F)F)cc2)c2ccc(OCc3ccc(C(F)(F)F)cc3)cc21`: the IC50 is 86 µM in series [1] and > 180 µM in the series on L6 (read-out: IC50). For the same molecule, in series [2], the selectivity ratio is > 2.
The matching figures for `CC(=O)Oc1ccc2c(c1)C(C)=CC(C)(C)N2Cc1ccc(C)cc1`: 0.39 µM, 21 µM and 54.
`CC(=O)Oc1ccc2c(c1)C(C)=CC(C)(C)N2Cc1cccc(C(F)(F)F)c1`: the IC50 in series [1] was found to be 0.041 µM; in the series on L6 (read-out: IC50) it was 27 µM. Besides, the selectivity ratio in series [2] amounted to 660.
Regarding `COc1ccccc1COc1ccc2c(c1)C(C)=CC(C)(C)N2`, the IC50 in series [1] was found to be 5.3 µM; with L6 (read-out: IC50) it was 48 µM. The selectivity ratio in series [2] turned out to be 9.
Turning to `CC(=O)Oc1ccc2c(c1)C(C)=CC(C)(C)N2Cc1ccc(C#N)cc1`, the IC50 came to 0.26 µM in series [1] and 29 µM in the series on L6 (read-out: IC50). In addition, in series [2], the selectivity ratio came out at 110.
As to `CC1=CC(C)(C)N(Cc2ccccc2)c2ccc(OC(=O)Cc3ccccc3)cc21`, the results for the IC50 (in series [1]; in the series on L6 (read-out: IC50)) were 0.015 µM and 160 µM, respectively. Besides, in series [2], the selectivity ratio is 11000.
Turning to `CC1=CC(C)(C)Nc2ccc(OCCc3ccccc3)cc21`, the values for the concentration for half-maximal inhibition (IC50) (in series [1]; in the series with L6 (read-out: IC50)) were 3.7 µM and 83 µM, respectively. In series [2], the selectivity ratio turned out to be 22.
In the case of `CC1=CC(C)(C)Nc2ccc(OCc3ccccc3)cc21`, the IC50 came out at 4.1 µM in series [1] and 56 µM in the series on L6 (read-out: IC50). The selectivity ratio in series [2] turned out to be 14.
In the case of `CC(=O)Oc1ccc2c(c1)C(C)=CC(C)(C)N2Cc1cccc(C)c1`, the IC50 in series [1] was 0.34 µM; in the series on L6 (read-out: IC50), 28 µM. Moreover, the selectivity ratio in series [2] came to 82.
The matching figures for `COc1cc(OC)cc(C(=O)Oc2ccc3c(c2)C(C)=CC(C)(C)N3Cc2ccc(Cl)cc2)c1`: 0.048 µM, > 190 µM and > 3900.
As to `CC(=O)Oc1ccc2c(c1)C(C)=CC(C)(C)N2C(C)=O`, the IC50 worked out at 5.3 µM in series [1] and 160 µM in the series on L6 (read-out: IC50). Besides, in series [2], the selectivity ratio worked out at 29.
In the same order, the values of `CC1=CC(C)(C)N(Cc2ccccc2)c2ccc(OC(=O)C3CCCCC3)cc21` are 0.028 µM, > 230 µM and > 8200.
Regarding `CC1=CC(C)(C)N(Cc2ccccc2)c2ccc(O)cc21`, the IC50 in series [1] amounted to 0.007 µM; with L6 (read-out: IC50) it was 6.8 µM. The selectivity ratio in series [2] was determined as 970.
In the same order, the values of `CC1(C)C=Cc2cc(O)ccc2N1Cc1ccccc1` are 0.13 µM, 5.5 µM and 42.
